Assay results as given in ChEMBL document CHEMBL1157950, “Sarcophytonolides E-H, cembranolides from the Hainan soft coral Sarcophyton latum” (J Nat Prod, 2006).
Active and inactive are the calls of the source. The rule behind the calls is not given here.

Assays:
A549 = experiment: Cytotoxicity against human A549 cells at 20 ug/mL; format: functional, cell-based
HL-60 = experiment: Cytotoxicity against human HL60 cells at 20 ug/mL; format: functional, cell-based

Row | Compound | Activity (A549) | Activity (HL-60)
1 | CC(=O)O[C@H]1C/C(C)=C/CC/C(C)=C/[C@H](O)CC2=C[C@H](OC2=O)[C@@H]1C(C)C | inactive | inactive
2 | C/C1=C\[C@H](O)CC2=C[C@@H](OC2=O)[C@H](C(C)C)CC/C(C)=C/CC1 | inactive | inactive
3 | C/C1=C\[C@@H](O)CC2=C[C@@H](OC2=O)[C@H](C(C)C)CC/C(C)=C/CC1 | inactive | inactive
4 | C/C1=C\CC[C@H](C)C[C@H](O)CC2=C[C@@H](OC2=O)[C@H](C(C)C)CC1 | inactive | inactive
